Assay results published in patent US12421243B2, “Pharmaceutically effective compounds inhibiting selectively the myosin 2 isoforms” (PRINTNET KERESKEDELMI ÉS SZOLGÁLTATÓ KFT., priority 2018, dated 2025).
Like-named read-outs stand apart in the source and are kept apart here.

Key:
[1] = system: isolated rabbit skeletal muscle myosin (skeletal); experiment: actomyosin steady state ATPase measurement, skeletal muscle myosin; format: biochemical
Description: (§1) […]; (ii) the concentration required for semi-maximal inhibition.

[2] = molecular target: recombinant human non-muscle myosin 2 NM2C (Homo sapiens, UniProt Q7Z406); experiment: actomyosin steady state ATPase measurement, NM2C; format: biochemical
Description: as §1

[3] = tissue concentrations after intraperitoneal injection into a live rat; format: in vivo; details: ip, 6 mg i.p.
S. typhimurium TA100 = experiment: Ames Reverse Mutagenicity Assay (Ames MPF Test), TA100; format: cell-based
Procedure: (§2) Mutagenicity of the compounds was determined in the Ames Reverse Mutagenicity Assay (Ames MPF Test, Xenometrix Inc.) approved by the OECD, EMA and FDA on S. typhimurium TA98 and TA100 strains without or in the presence of S9 rat liver fraction. Relative mutagenicity values were prepared using a table provided by the manufacturer. Relative mutagenicity values according to OECD, EMA, and FDA standards may not exceed 2 at any concentration because in such a case they are potentially mutagenic.

[4] = molecular target: isolated smooth muscle myosin (UniProt P10587); format: biochemical, chamois; details: concentration required for semi-maximal inhibition of ATPase
Description: (ii) the concentration required for semi-maximal inhibition.

[5] = molecular target: recombinant human non-muscle myosin 2 NM2A (Homo sapiens, UniProt P35579); experiment: actomyosin steady state ATPase measurement, NM2A; format: biochemical
Sequence of recombinant human non-muscle myosin 2 NM2A (P35579 whole entry): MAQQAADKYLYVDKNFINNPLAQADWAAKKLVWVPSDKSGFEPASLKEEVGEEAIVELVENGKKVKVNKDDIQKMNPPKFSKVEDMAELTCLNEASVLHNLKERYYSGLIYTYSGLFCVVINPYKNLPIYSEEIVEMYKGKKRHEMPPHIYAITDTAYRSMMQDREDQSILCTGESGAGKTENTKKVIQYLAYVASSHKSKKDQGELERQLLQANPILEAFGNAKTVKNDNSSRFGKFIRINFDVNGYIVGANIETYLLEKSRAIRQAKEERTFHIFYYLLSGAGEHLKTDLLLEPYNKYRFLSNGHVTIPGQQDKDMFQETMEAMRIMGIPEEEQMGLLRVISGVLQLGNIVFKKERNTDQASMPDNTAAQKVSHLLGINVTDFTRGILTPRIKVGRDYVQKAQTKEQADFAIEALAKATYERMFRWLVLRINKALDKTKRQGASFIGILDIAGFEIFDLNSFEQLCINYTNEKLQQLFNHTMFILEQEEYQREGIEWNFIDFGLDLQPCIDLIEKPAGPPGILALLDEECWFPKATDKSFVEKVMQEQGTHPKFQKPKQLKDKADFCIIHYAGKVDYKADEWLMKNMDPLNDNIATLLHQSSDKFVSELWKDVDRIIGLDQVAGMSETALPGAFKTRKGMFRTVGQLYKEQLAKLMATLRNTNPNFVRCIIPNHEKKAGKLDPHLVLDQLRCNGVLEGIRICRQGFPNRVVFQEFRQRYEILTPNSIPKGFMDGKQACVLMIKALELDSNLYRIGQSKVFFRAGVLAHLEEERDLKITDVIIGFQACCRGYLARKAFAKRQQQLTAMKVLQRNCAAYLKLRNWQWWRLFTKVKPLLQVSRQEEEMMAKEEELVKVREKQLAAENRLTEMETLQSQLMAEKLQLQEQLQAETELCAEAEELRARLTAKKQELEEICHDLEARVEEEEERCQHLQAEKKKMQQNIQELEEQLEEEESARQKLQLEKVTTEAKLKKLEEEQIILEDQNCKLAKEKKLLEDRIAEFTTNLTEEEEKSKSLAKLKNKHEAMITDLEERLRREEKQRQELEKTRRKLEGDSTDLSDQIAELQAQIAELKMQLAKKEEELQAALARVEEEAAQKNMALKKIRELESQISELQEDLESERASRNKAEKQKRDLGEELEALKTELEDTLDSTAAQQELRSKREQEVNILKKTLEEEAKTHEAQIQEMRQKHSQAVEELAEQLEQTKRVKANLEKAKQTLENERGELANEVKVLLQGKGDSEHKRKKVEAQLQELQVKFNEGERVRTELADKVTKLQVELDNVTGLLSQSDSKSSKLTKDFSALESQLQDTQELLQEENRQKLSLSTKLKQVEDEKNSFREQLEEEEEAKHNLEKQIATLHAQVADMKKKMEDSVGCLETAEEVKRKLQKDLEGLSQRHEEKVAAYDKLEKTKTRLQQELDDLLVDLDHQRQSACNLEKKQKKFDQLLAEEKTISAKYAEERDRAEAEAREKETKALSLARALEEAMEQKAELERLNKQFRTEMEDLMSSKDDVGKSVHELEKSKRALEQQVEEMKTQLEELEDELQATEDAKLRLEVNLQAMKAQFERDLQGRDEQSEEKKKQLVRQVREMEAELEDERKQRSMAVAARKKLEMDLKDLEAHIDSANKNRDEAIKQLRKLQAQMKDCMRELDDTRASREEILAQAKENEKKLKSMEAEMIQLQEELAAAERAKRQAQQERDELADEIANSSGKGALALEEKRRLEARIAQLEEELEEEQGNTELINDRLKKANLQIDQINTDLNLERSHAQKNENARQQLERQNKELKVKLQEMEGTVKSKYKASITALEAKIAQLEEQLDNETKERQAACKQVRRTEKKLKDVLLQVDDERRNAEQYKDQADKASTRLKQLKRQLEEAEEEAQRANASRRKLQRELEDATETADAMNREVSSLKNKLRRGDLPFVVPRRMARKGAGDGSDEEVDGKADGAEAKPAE
Description: as §1

S. typhimurium TA98 = experiment: Ames Reverse Mutagenicity Assay (Ames MPF Test), TA98; format: cell-based
Procedure: as §2

[6] = vital parameters of live anesthetized rats monitored during isometric force measurement; format: in vivo; details: anesthetized rat; for Maximum change of vital parameters (%) blood flow: neck arteries
Procedure: The maximum isometric force induced by the stimulation was determined after intraperitoneal injection of some of the compounds of the invention. During the measurement, the following parameters of live anesthetized rats were continuously monitored: • a) heart rate • b) blood flow in the neck arteries • c) respiratory frequency • d) blood oxygen saturation ratio

[7] = molecular target: recombinant Dictyostelium miozin (Dictyostelium) (Dictyostelium discoideum, UniProt P08799); experiment: actomyosin steady state ATPase measurement, Dictyostelium myosin; format: biochemical
Description: as §1

[8] = molecular target: T1, isolated porcine cardiac ventricular myocardium (cardiac) (Sus scrofa, UniProt P79293); experiment: actomyosin steady state ATPase measurement, cardiac myosin; format: biochemical
T1 construct: isolated porcine cardiac ventricular myocardium (cardiac); from tissue; host or cells: porcine cardiac ventricle
T1 sequence (P79293 whole entry): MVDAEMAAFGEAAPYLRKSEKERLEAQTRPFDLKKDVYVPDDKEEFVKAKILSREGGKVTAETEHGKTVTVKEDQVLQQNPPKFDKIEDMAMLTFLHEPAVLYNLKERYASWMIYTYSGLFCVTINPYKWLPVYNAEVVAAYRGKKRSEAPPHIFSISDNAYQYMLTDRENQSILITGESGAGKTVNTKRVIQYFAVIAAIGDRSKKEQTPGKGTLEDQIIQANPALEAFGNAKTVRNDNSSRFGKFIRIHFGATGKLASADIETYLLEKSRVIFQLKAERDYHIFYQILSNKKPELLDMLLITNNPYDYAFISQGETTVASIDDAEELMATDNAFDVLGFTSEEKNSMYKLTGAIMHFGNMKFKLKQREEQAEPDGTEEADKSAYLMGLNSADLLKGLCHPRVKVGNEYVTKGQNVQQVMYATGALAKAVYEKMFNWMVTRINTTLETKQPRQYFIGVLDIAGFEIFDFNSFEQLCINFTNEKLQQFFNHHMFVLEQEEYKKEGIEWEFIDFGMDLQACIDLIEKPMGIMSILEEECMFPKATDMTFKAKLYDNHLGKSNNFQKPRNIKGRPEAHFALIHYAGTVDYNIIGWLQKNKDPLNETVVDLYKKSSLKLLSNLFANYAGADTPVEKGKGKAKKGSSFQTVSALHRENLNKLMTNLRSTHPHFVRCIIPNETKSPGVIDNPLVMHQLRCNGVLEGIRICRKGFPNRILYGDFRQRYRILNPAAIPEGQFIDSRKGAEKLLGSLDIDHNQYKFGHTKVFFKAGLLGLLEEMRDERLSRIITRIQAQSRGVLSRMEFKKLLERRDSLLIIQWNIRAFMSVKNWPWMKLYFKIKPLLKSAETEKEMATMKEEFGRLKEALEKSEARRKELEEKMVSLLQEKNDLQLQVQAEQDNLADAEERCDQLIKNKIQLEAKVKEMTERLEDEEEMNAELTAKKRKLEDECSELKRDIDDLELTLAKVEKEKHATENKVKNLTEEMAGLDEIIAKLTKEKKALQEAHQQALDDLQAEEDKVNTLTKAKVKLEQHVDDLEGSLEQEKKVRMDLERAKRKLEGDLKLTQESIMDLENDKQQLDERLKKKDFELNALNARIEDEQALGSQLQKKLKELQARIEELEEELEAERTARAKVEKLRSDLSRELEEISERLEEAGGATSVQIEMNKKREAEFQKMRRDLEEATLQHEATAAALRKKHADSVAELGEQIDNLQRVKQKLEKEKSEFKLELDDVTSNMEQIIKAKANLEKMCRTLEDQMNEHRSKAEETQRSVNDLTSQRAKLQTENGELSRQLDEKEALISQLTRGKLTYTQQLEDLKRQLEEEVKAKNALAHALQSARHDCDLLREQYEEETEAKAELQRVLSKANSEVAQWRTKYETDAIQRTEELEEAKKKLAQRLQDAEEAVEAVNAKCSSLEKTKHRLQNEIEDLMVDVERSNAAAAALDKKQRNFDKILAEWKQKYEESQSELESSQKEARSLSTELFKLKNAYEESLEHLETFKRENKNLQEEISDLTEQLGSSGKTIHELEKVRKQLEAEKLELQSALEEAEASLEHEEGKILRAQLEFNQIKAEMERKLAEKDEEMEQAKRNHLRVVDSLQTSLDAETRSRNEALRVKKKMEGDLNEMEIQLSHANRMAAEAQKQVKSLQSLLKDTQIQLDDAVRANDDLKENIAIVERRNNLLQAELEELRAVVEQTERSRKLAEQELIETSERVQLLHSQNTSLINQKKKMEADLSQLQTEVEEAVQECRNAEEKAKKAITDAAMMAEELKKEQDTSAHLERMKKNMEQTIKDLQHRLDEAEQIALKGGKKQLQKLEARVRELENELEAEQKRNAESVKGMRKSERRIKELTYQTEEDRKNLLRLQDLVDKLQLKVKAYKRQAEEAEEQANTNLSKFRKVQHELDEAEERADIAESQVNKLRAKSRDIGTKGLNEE
Description: as §1

[9] = molecular target: isolated smooth muscle myosin (UniProt P10587); format: biochemical, chamois
[10] = 5 μM (10 μM if racemate), ATPase activity
[11] = 50 μM (100 μM if racemate), ATPase activity
[12] = concentration required for semi-maximal inhibition of ATPase
[13] = maximum value of inhibition of ATPase activity
[14] = blood, read-out: Concentration of compound 188 in tissue samples (μM) blood
[15] = brain, read-out: Concentration of compound 188 in tissue samples (μM) brain
[16] = skeletal muscle, read-out: Concentration of compound 188 in tissue samples (μM) muscle
[17] = kidney, read-out: Concentration of compound 188 in tissue samples (μM) kidney
[18] = liver, read-out: Concentration of compound 188 in tissue samples (μM) liver
[19] = lung, read-out: Concentration of compound 188 in tissue samples (μM) lung
[20] = myocardium, read-out: Concentration of compound 188 in tissue samples (μM) myocardium
[21] = spleen, read-out: Concentration of compound 188 in tissue samples (μM) spleen
[22] = urine, read-out: Concentration of compound 188 in tissue samples (μM) urine

O=C1c2ccsc2N=C2N(c3ccc(N4CCOCC4)cc3)CCC12O (centres unmarked) [Compound 188, 9-Hydroxy-12-[4-(morpholin-4-yl)phenyl]-4-thia-2,12-diazatricyclo[7.3.0.0^3,7]dodeca-1,3(7),5-trien-8-one]
% inhibition at 5 μM (or 10 μM if racemate) Skeletal [1, 10]: 50%
% inhibition at 50 μM (or 100 μM if racemate) Skeletal [1, 11]: 95%
IC50 [1, 12]: 5 µM
% inhibition. complete Skeletal [1, 13]: 100%
IC50 [2, 12]: 4 µM
Inhibition (%) NM2C ([2]; maximum inhibition, compounds in IC50 range 1-5 μM): 15%
% inhibition. complete NM2C [2, 13]: 15%
inhibition at 5 µM ([2]; read-out: % inhibition at 5 μM (or 10 μM if racemate) NM2C, 5 μM (10 μM if racemate), ATPase activity): 8%
inhibition at 50 µM ([2]; read-out: % inhibition at 50 μM (or 100 μM if racemate) NM2C, 50 μM (100 μM if racemate), ATPase activity): 14%
concentration at 5 min [3, 14]: 12 µM
concentration at 15 min [3, 14]: 16 µM
concentration at 30 min [3, 14]: 12 µM
concentration at 45 min [3, 14]: 10 µM
concentration at 60 min [3, 14]: 8 µM
concentration at 5 min [3, 15]: 25 µM
concentration at 15 min [3, 15]: 45 µM
concentration at 30 min [3, 15]: 36 µM
concentration at 45 min [3, 15]: 17 µM
concentration at 60 min [3, 15]: 5 µM
concentration at 5 min [3, 16]: 22 µM
concentration at 15 min [3, 16]: 48 µM
concentration at 30 min [3, 16]: 69 µM
concentration at 45 min [3, 16]: 78 µM
concentration at 60 min [3, 16]: 74 µM
concentration at 5 min [3, 17]: 29 µM
concentration at 15 min [3, 17]: 56 µM
concentration at 30 min [3, 17]: 20 µM
concentration at 45 min [3, 17]: 12 µM
concentration at 60 min [3, 17]: 3 µM
concentration at 5 min [3, 18]: 30 µM
concentration at 15 min [3, 18]: 18 µM
concentration at 30 min [3, 18]: 12 µM
concentration at 45 min [3, 18]: 9 µM
concentration at 60 min [3, 18]: 3 µM
concentration at 5 min [3, 19]: 25 µM
concentration at 15 min [3, 19]: 36 µM
concentration at 30 min [3, 19]: 22 µM
concentration at 45 min [3, 19]: 9 µM
concentration at 60 min [3, 19]: 4 µM
concentration at 5 min [3, 20]: 36 µM
concentration at 15 min [3, 20]: 48 µM
concentration at 30 min [3, 20]: 26 µM
concentration at 45 min [3, 20]: 18 µM
concentration at 60 min [3, 20]: 9 µM
concentration at 5 min [3, 21]: 37 µM
concentration at 15 min [3, 21]: 28 µM
concentration at 30 min [3, 21]: 11 µM
concentration at 45 min [3, 21]: 5 µM
concentration at 60 min [3, 21]: 3 µM
concentration at 5 min [3, 22]: 58 µM
concentration at 15 min [3, 22]: 77 µM
concentration at 30 min [3, 22]: 72 µM
concentration at 45 min [3, 22]: 63 µM
concentration at 60 min [3, 22]: 21 µM
Relative mutagenicity (as compared to the control value) (S. typhimurium TA100; TA100, +S9, 31.25 μM): 0.4
Relative mutagenicity (as compared to the control value) (S. typhimurium TA100; TA100, +S9, 62.5 μM): 0.3
Relative mutagenicity (as compared to the control value) (S. typhimurium TA100; TA100, +S9, 125 μM): 0.6
Relative mutagenicity (as compared to the control value) (S. typhimurium TA100; TA100, +S9, 250 μM): 0.6
Relative mutagenicity (as compared to the control value) (S. typhimurium TA100; TA100, +S9, 500 μM): 0.6
Relative mutagenicity (as compared to the control value) (S. typhimurium TA100; TA100, +S9, 1000 μM): 0.5
Relative mutagenicity (as compared to the control value) (S. typhimurium TA100; TA100, −S9, 31.25 μM): 0.8
Relative mutagenicity (as compared to the control value) (S. typhimurium TA100; TA100, −S9, 62.5 μM): 0.5
Relative mutagenicity (as compared to the control value) (S. typhimurium TA100; TA100, −S9, 125 μM): 0.6
Relative mutagenicity (as compared to the control value) (S. typhimurium TA100; TA100, −S9, 250 μM): 0.5
Relative mutagenicity (as compared to the control value) (S. typhimurium TA100; TA100, −S9, 500 μM): 0.6
Relative mutagenicity (as compared to the control value) (S. typhimurium TA100; TA100, −S9, 1000 μM): 0.7
IC50 [4]: > 100 µM
IC50 [5, 12]: 82 µM
% inhibition. complete NM2A [5, 13]: 31%
inhibition at 5 µM ([5]; read-out: % inhibition at 5 μM (or 10 μM if racemate) NM2A, 5 μM (10 μM if racemate), ATPase activity): 0%
inhibition at 50 µM ([5]; read-out: % inhibition at 50 μM (or 100 μM if racemate) NM2A, 50 μM (100 μM if racemate), ATPase activity): 9%
Relative mutagenicity (as compared to the control value) (S. typhimurium TA98; TA98, +S9, 31.25 μM): 0.2
Relative mutagenicity (as compared to the control value) (S. typhimurium TA98; TA98, +S9, 62.5 μM): 0.2
Relative mutagenicity (as compared to the control value) (S. typhimurium TA98; TA98, +S9, 125 μM): 0.4
Relative mutagenicity (as compared to the control value) (S. typhimurium TA98; TA98, +S9, 250 μM): 0.4
Relative mutagenicity (as compared to the control value) (S. typhimurium TA98; TA98, +S9, 500 μM): 0.4
Relative mutagenicity (as compared to the control value) (S. typhimurium TA98; TA98, +S9, 1000 μM): 0.2
Relative mutagenicity (as compared to the control value) (S. typhimurium TA98; TA98, −S9, 31.25 μM): 1.2
Relative mutagenicity (as compared to the control value) (S. typhimurium TA98; TA98, −S9, 62.5 μM): 0.3
Relative mutagenicity (as compared to the control value) (S. typhimurium TA98; TA98, −S9, 125 μM): 0.7
Relative mutagenicity (as compared to the control value) (S. typhimurium TA98; TA98, −S9, 250 μM): 0.3
Relative mutagenicity (as compared to the control value) (S. typhimurium TA98; TA98, −S9, 500 μM): 0.7
Relative mutagenicity (as compared to the control value) (S. typhimurium TA98; TA98, −S9, 1000 μM): 1.0
Maximum change of vital parameters (%) heart rate ([6]; 1 mg i.p.): 3%
Maximum change of vital parameters (%) oxygen saturation ([6]; 1 mg i.p.): −16%
Maximum change of vital parameters (%) respiratory frequency ([6]; 1 mg i.p.): −18%
Maximum change of vital parameters (%) blood flow ([6]; 1 mg i.p.): 15%
Maximum change of vital parameters (%) heart rate ([6]; 3 mg i.p.): −3%
Maximum change of vital parameters (%) oxygen saturation ([6]; 3 mg i.p.): −3%
Maximum change of vital parameters (%) respiratory frequency ([6]; 3 mg i.p.): 5%
Maximum change of vital parameters (%) blood flow ([6]; 3 mg i.p.): −5%
Maximum change of vital parameters (%) heart rate ([6]; 6 mg i.p.): −9%
Maximum change of vital parameters (%) oxygen saturation ([6]; 6 mg i.p.): −1%
Maximum change of vital parameters (%) respiratory frequency ([6]; 6 mg i.p.): −1%
Maximum change of vital parameters (%) blood flow ([6]; 6 mg i.p.): −1%
Maximum change of vital parameters (%) heart rate ([6]; 9 mg i.p.): −12%
Maximum change of vital parameters (%) oxygen saturation ([6]; 9 mg i.p.): −27%
Maximum change of vital parameters (%) respiratory frequency ([6]; 9 mg i.p.): −40%
Maximum change of vital parameters (%) blood flow ([6]; 9 mg i.p.): 9%
IC50 ([7]; concentration required for semi-maximal inhibition of ATPase, read-out: IC50 (μM) Dicty): 13 µM
% inhibition. complete Dicty [7, 13]: 19%
inhibition at 5 µM ([7]; read-out: % inhibition at 5 μM (or 10 μM if racemate) Dicty): 5%
inhibition at 50 µM ([7]; read-out: % inhibition at 50 μM (or 100 μM if racemate) Dicty): 15%
IC50 [8, 12]: > 100 µM
% inhibition. complete cardiac [8, 13]: 32%
inhibition at 5 µM ([8]; read-out: % inhibition at 5 μM (or 10 μM if racemate) cardiac, 5 μM (10 μM if racemate), ATPase activity): 0%
inhibition at 50 µM ([8]; read-out: % inhibition at 50 μM (or 100 μM if racemate) cardiac, 50 μM (100 μM if racemate), ATPase activity): 8%
% inhibition at 5 μM (or 10 μM if racemate) Smooth [9, 10]: 0%
% inhibition at 50 μM (or 100 μM if racemate) Smooth [9, 11]: 11%
% inhibition. complete Smooth [9, 13]: 100%
